Experiments:
[1] = test system: Phaeosphaeria nodorum (Septoria nodorum); assay: Phaeosphaeria nodorum (Septoria nodorum)/Wheat/Leaf Disc Preventative (Glume Blotch); assay type: in vivo; settings: Parastagonospora nodorum, foliar; 200 ppm in the formulation; wheat leaf segments cv. Kanzler, inoculated 2 days after application, assessed 5-7 days after application; compared to untreated; read-out: disease control
Experimental: Phaeosphaeria nodorum (Septoria nodorum)/Wheat/Leaf Disc Preventative (Glume Blotch) Wheat leaf segments cv. Kanzler are placed on agar in a multiwell plate (24-well format) and sprayed with the formulated test compound diluted in water. The leaf disks are inoculated with a spore suspension of the fungus 2 days after application. The inoculated test leaf disks are incubated at 20° C. and 75% rh under a light regime of 12 h light/12 h darkness in a climate cabinet and the activity of a compound is assessed as percent disease control compared to untreated when an appropriate level of disease damage appears in untreated check leaf disks (5-7 days after application).

[2] = test system: Glomerella lagenarium (Colletotrichum lagenarium); assay: Glomerella lagenarium (Colletotrichum lagenarium)/Liquid Culture (Anthracnose); assay type: cell-based; settings: Colletotrichum orbiculare; 200 ppm in the formulation; liquid culture, growth inhibition photometrically 3 to 4 days after application; compared to untreated control; read-out: disease control
Experimental: Glomerella lagenarium (Colletotrichum lagenarium)/Liquid Culture (Anthracnose) Conidia of the fungus from cryogenic storage are directly mixed into nutrient broth (PDB potato dextrose broth). After placing a (DMSO) solution of test compound into a microtiter plate (96-well format), the nutrient broth containing the fungal spores is added. The test plates are incubated at 24° C. and the inhibition of growth is measured photometrically 3 to 4 days after application.

[3] = test system: Mycosphaerella graminicola (Septoria tritici); assay: Mycosphaerella graminicola (Septoria tritici)/Liquid Culture (Septoria Blotch); assay type: cell-based; settings: Zymoseptoria tritici; 200 ppm in the formulation; liquid culture, growth inhibition photometrically 4 to 5 days after application; compared to untreated control; read-out: disease control
Experimental: Mycosphaerella graminicola (Septoria tritici)/Liquid Culture (Septoria Blotch) Conidia of the fungus from cryogenic storage are directly mixed into nutrient broth (PDB potato dextrose broth). After placing a (DMSO) solution of test compound into a microtiter plate (96-well format), the nutrient broth containing the fungal spores is added. The test plates are incubated at 24° C. and the inhibition of growth is determined photometrically 4 to 5 days after application.

[4] = test system: Puccinia recondita f. sp. tritici; assay: Puccinia recondita f. sp. tritici/Wheat/Leaf Disc Preventative (Brown Rust); assay type: in vivo; settings: foliar, 200 ppm in the formulation, wheat leaf segments cv. Kanzler, inoculated 1 day after application, assessed 7-9 days after application, compared to untreated, read-out: disease control
Experimental: Puccinia recondita f. sp. tritici/Wheat/Leaf Disc Preventative (Brown Rust) Wheat leaf segments cv. Kanzler are placed on agar in multiwell plates (24-well format) and sprayed with the formulated test compound diluted in water. The leaf disks are inoculated with a spore suspension of the fungus 1 day after application. The inoculated leaf segments are incubated at 19° C. and 75% rh under a light regime of 12 h light/12 h darkness in a climate cabinet and the activity of a compound is assessed as percent disease control compared to untreated when an appropriate level of disease damage appears in untreated check leaf segments (7-9 days after application).

[5] = test system: Botryotinia fuckeliana (Botrvtis cinerea); assay: Botryotinia fuckeliana (Botrvtis cinerea)/Liquid Culture (Gray Mould); assay type: cell-based; settings: Botrytis cinerea; 200 ppm in the formulation; liquid culture, growth inhibition photometrically 3-4 days after application; compared to untreated control; read-out: disease control
Experimental: Botryotinia fuckeliana (Botrvtis cinerea)/Liquid Culture (Gray Mould) Conidia of the fungus from cryogenic storage are directly mixed into nutrient broth (Vogels broth). After placing a (DMSO) solution of test compound into a microtiter plate (96-well format), the nutrient broth containing the fungal spores is added. The test plates are incubated at 24° C. and the inhibition of growth is determined photometrically 3-4 days after application.

[6] = test system: Mycosphaerella arachidis (Cercospora arachidicola); assay: Mycosphaerella arachidis (Cercospora arachidicola)/Liquid Culture (Early Leaf Spot); assay type: cell-based; settings: 200 ppm in the formulation, liquid culture, growth inhibition photometrically 4-5 days after application, compared to untreated control, read-out: disease control
Experimental: Mycosphaerella arachidis (Cercospora arachidicola)/Liquid Culture (Early Leaf Spot) Conidia of the fungus from cryogenic storage are directly mixed into nutrient broth (PDB potato dextrose broth). After placing a (DMSO) solution of test compound into a microtiter plate (96-well format), the nutrient broth containing the fungal spores is added. The test plates are incubated at 24° C. and the inhibition of growth is determined photometrically 4-5 days after application.

[7] = test system: Monographella nivalis (Microdochium nivale); assay: Monographella nivalis (Microdochium nivale)/Liquid Culture (Foot Rot Cereals); assay type: cell-based; settings: 200 ppm in the formulation, liquid culture, growth inhibition photometrically 4-5 days after application, compared to untreated control, read-out: disease control
Experimental: Monographella nivalis (Microdochium nivale)/Liquid Culture (Foot Rot Cereals) Conidia of the fungus from cryogenic storage are directly mixed into nutrient broth (PDB potato dextrose broth). After placing a (DMSO) solution of test compound into a microtiter plate (96-well format), the nutrient broth containing the fungal spores is added. The test plates are incubated at 24° C. and the inhibition of growth is determined photometrically 4-5 days after application.

COc1ccnc(C(=O)N[C@@H](C)C(=O)O[C@@H](C)c2cccc(Oc3ccccc3)c2)c1O [I.aq.001, [(1S)-1-(3-phenoxyphenyl)ethyl] (2S)-2-[(3-hydroxy-4-methoxy-pyridine-2-carbonyl)amino] propanoate]
≥ 80%: pest or weed control at 200 ppm [1] | inhibition of growth at 200 ppm [2] | inhibition of growth at 200 ppm [3] | pest or weed control at 200 ppm [4] | inhibition of growth at 200 ppm [5]

COc1ccnc(C(=O)N[C@@H](C)C(=O)O[C@@H](C)c2ccc(Oc3ccc(Cl)cc3Cl)cc2)c1O [I.aw.001, [(1S)-1-[4-(2,4-dichlorophenoxy)phenyl]ethyl] (2S)-2-[(3-hydroxy-4-methoxy-pyridine-2-carbonyl)amino] propanoate]
≥ 80%: inhibition of growth at 200 ppm [6] | pest or weed control at 200 ppm [1] | inhibition of growth at 200 ppm [2] | inhibition of growth at 200 ppm [3] | pest or weed control at 200 ppm [4]

COc1ccnc(C(=O)N[C@@H](C)C(=O)O[C@@H](C)c2ccc(Oc3cccc(C(F)(F)F)c3)cc2)c1O [I.ax.001, [(1S)-1-[4-[3-(trifluoromethyl)phenoxy]phenyl]ethyl] (2S)-2-[(3-hydroxy-4-methoxy-pyridine-2-carbonyl)amino] propanoate]
≥ 80%: inhibition of growth at 200 ppm [6] | pest or weed control at 200 ppm [1] | inhibition of growth at 200 ppm [2] | inhibition of growth at 200 ppm [3] | pest or weed control at 200 ppm [4]

COc1ccnc(C(=O)N[C@@H](C)C(=O)O[C@@H](C)c2ccc(Oc3ccc(C(F)(F)F)cc3)cc2)c1O [I.ay.001, [(1S)-1-[4-[4-(trifluoromethyl)phenoxy]phenyl]ethyl] (2S)-2-[(3-hydroxy-4-methoxy-pyridine-2-carbonyl)amino] propanoate]
≥ 80%: inhibition of growth at 200 ppm [6] | pest or weed control at 200 ppm [1] | inhibition of growth at 200 ppm [2] | inhibition of growth at 200 ppm [3] | inhibition of growth at 200 ppm [7] | pest or weed control at 200 ppm [4]

COc1ccnc(C(=O)N[C@@H](C)C(=O)O[C@@H](C)c2ccc(Oc3ccc(C(F)(F)F)cc3Cl)cc2)c1O [I.az.001, [(1S)-1-[4-[2-chloro-4-(trifluoromethyl)phenoxy]phenyl]ethyl] (2S)-2-[(3-hydroxy-4-methoxy-pyridine-2-carbonyl)amino] propanoate]
≥ 80%: inhibition of growth at 200 ppm [6] | pest or weed control at 200 ppm [1] | inhibition of growth at 200 ppm [2] | inhibition of growth at 200 ppm [3]

COc1cc(-c2ccc([C@H](C)OC(=O)[C@H](C)NC(=O)c3nccc(OC)c3O)cc2)ccn1 [I.ba.001, [(1S)-1-[4-(2-methoxy-4-pyridyl)phenyl]ethyl] (2S)-2-[(3-hydroxy-4-methoxy-pyridine-2-carbonyl)amino] propanoate]
≥ 80%: inhibition of growth at 200 ppm [6] | pest or weed control at 200 ppm [1] | inhibition of growth at 200 ppm [2] | inhibition of growth at 200 ppm [3] | inhibition of growth at 200 ppm [7] | pest or weed control at 200 ppm [4]

COc1ccnc(C(=O)N[C@@H](C)C(=O)O[C@@H](C)c2ccc(-c3ccccc3C)cc2)c1O [I.h.001, [(1S)-1-[4-(o-tolyl)phenyl]ethyl] (2S)-2-[(3-hydroxy-4-methoxy-pyridine-2-carbonyl)amino] propanoate]
≥ 80%: inhibition of growth at 200 ppm [6] | pest or weed control at 200 ppm [1] | inhibition of growth at 200 ppm [2] | inhibition of growth at 200 ppm [3] | inhibition of growth at 200 ppm [7] | pest or weed control at 200 ppm [4] | inhibition of growth at 200 ppm [5]

CCc1ccccc1-c1ccc([C@H](C)OC(=O)[C@H](C)NC(=O)c2nccc(OC)c2O)cc1 [I.i.001, [(1S)-1-[4-(2-ethylphenyl)phenyl]ethyl] (2S)-2-[(3-hydroxy-4-methoxy-pyridine-2-carbonyl)amino] propanoate]
≥ 80%: inhibition of growth at 200 ppm [6] | pest or weed control at 200 ppm [1] | inhibition of growth at 200 ppm [2] | inhibition of growth at 200 ppm [3] | pest or weed control at 200 ppm [4]

COc1ccnc(C(=O)N[C@@H](C)C(=O)O[C@@H](C)c2ccc(-c3ccccc3COC(C)(C)C)cc2)c1O [I.k.001, [(1S)-1-[4-[2-(tert-butoxymethyl)phenyl]phenyl]ethyl] (2S)-2-[(3-hydroxy-4-methoxy-pyridine-2-carbonyl)amino] propanoate]
≥ 80%: inhibition of growth at 200 ppm [6] | pest or weed control at 200 ppm [1] | inhibition of growth at 200 ppm [2] | inhibition of growth at 200 ppm [3] | pest or weed control at 200 ppm [4] | inhibition of growth at 200 ppm [5]

COc1ccnc(C(=O)N[C@@H](C)C(=O)O[C@@H](C)c2ccc(-c3cccc(C)c3C)cc2)c1O [I.m.001, [(1S)-1-[4-(2,3-dimethylphenyl)phenyl]ethyl] (2S)-2-[(3-hydroxy-4-methoxy-pyridine-2-carbonyl)amino] propanoate]
≥ 80%: inhibition of growth at 200 ppm [6] | pest or weed control at 200 ppm [1] | inhibition of growth at 200 ppm [2] | inhibition of growth at 200 ppm [3] | inhibition of growth at 200 ppm [7] | pest or weed control at 200 ppm [4] | inhibition of growth at 200 ppm [5]

COc1ccnc(C(=O)N[C@@H](C)C(=O)O[C@@H](C)c2ccc(-c3ccc(Br)cc3)cc2)c1OC(C)=O [I.v.019, [(1S)-1-[4-(4-bromophenyl)phenyl]ethyl] (2S)-2-[(3-acetoxy-4-methoxy-pyridine-2-carbonyl)amino] propanoate]
≥ 80%: inhibition of growth at 200 ppm [6] | pest or weed control at 200 ppm [1] | inhibition of growth at 200 ppm [3] | inhibition of growth at 200 ppm [7] | pest or weed control at 200 ppm [4]

COc1ccnc(C(=O)N[C@@H](C)C(=O)O[C@@H](C)c2ccc(-c3ccc(C)cc3)cc2)c1O [I.w.001, [(1S)-1-[4-(p-tolyl)phenyl]ethyl] (2S)-2-[(3-hydroxy-4-methoxy-pyridine-2-carbonyl)amino] propanoate]
≥ 80%: inhibition of growth at 200 ppm [6] | pest or weed control at 200 ppm [1] | inhibition of growth at 200 ppm [2] | inhibition of growth at 200 ppm [3] | inhibition of growth at 200 ppm [7] | pest or weed control at 200 ppm [4]

From US11629129B2, “Microbiocidal picolinamide derivatives” (SYNGENTA PARTICIPATIONS AG, priority 2018, dated 2023)
